Data reported in paper PMC4051630, “A Comparison of Protein Kinases Inhibitor Screening Methods Using Both Enzymatic Activity and Binding Affinity Determination” (PLoS ONE, 2014).

Legend:
Assay in all cases: Differential Scanning Fluorimetry (DSF) Tm shift
Format in all cases: binding
AKT3 Catalytic Domain = molecular target: T1, AKT3 Catalytic Domain (Homo sapiens, UniProt Q9Y243); conditions: 2 µM protein, 10 µM inhibitor, average of 3 experiments, each in duplicate
T1 construct: AKT3 (Q9Y243); CD; His-tag; made in house; host or cells: Escherichia coli

CDK2 + Cyclin A = molecular target: T2, CDK2 + Cyclin A (Homo sapiens, UniProt P24941); conditions: CDK2 + Cyclin A; 2 µM protein, 10 µM inhibitor; average of 3 experiments, each in duplicate
T2 construct: CDK2 (P24941); 1–299; His-tag; made in house; host or cells: Escherichia coli

CDK2 + Cyclin E = molecular target: T3, CDK2 + Cyclin E (Homo sapiens, UniProt P24941); conditions: CDK2 + Cyclin E; 2 µM protein, 10 µM inhibitor; average of 3 experiments, each in duplicate
T3 construct: CDK2 (P24941); 1–299; His-tag; made in house; host or cells: Escherichia coli

CHK2 Catalytic Domain = molecular target: T4, CHK2 Catalytic Domain (Homo sapiens, UniProt O96017); conditions: 2 µM protein, 10 µM inhibitor, average of 3 experiments, each in duplicate
T4 construct: For all of them, we expressed and purified the catalytic domain separately; His-tag; made in house; host or cells: Escherichia coli

DMPK Catalytic Domain = molecular target: T5, DMPK Catalytic Domain (Homo sapiens, UniProt Q09013); conditions: 2 µM protein, 10 µM inhibitor, average of 3 experiments, each in duplicate
T5 construct: For all of them, we expressed and purified the catalytic domain separately; His-tag; made in house; host or cells: Escherichia coli
T5 sequence (Q09013 71-339 limits assumed): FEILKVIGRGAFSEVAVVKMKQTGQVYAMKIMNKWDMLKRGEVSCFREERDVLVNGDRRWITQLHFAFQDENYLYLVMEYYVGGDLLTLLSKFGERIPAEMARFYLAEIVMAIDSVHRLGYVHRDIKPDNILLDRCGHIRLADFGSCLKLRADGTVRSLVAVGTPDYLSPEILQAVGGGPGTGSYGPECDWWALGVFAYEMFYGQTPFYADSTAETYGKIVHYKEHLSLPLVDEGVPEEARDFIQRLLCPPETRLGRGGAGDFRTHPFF

FAK2 Catalytic Domain = molecular target: T6, FAK2 Catalytic Domain (Homo sapiens, UniProt Q14289); conditions: 2 µM protein, 10 µM inhibitor, average of 3 experiments, each in duplicate
T6 construct: For all of them, we expressed and purified the catalytic domain separately; His-tag; made in house; host or cells: Escherichia coli

FES Catalytic Domain+SH2 = molecular target: T7, FES Catalytic Domain+SH2 (Homo sapiens, UniProt P07332); conditions: 2 µM protein, 10 µM inhibitor, average of 3 experiments, each in duplicate
T7 construct: for 8, we also made a longer version containing one or more additional domains; His-tag; made in house; host or cells: Escherichia coli

FES Catalytic Domain = molecular target: T8, FES Catalytic Domain (Homo sapiens, UniProt P07332); conditions: 2 µM protein, 10 µM inhibitor, average of 3 experiments, each in duplicate
T8 construct: For all of them, we expressed and purified the catalytic domain separately; His-tag; made in house; host or cells: Escherichia coli

[1] = molecular target: T9, PAK4 Catalytic Domain+PBD (Homo sapiens, UniProt O96013); conditions: 2 µM protein, 10 µM inhibitor, average of 3 experiments, each in duplicate
T9 construct: for 8, we also made a longer version containing one or more additional domains; His-tag; made in house; host or cells: Escherichia coli

PAK4 Catalytic Domain = molecular target: T10, PAK4 Catalytic Domain (Homo sapiens, UniProt O96013); conditions: 2 µM protein, 10 µM inhibitor, average of 3 experiments, each in duplicate
T10 construct: For all of them, we expressed and purified the catalytic domain separately; His-tag; made in house; host or cells: Escherichia coli

PAK7 Catalytic Domain = molecular target: T11, PAK7 Catalytic Domain (Homo sapiens, UniProt Q9P286); conditions: 2 µM protein, 10 µM inhibitor, average of 3 experiments, each in duplicate
T11 construct: For all of them, we expressed and purified the catalytic domain separately; His-tag; made in house; host or cells: Escherichia coli

[2] = molecular target: SRC Catalytic Domain+SH2+SH3 (Homo sapiens, UniProt P12931); conditions: 2 µM protein, 10 µM inhibitor, average of 3 experiments, each in duplicate
[3] = molecular target: T12, STK3 Catalytic domain+SARAH (Homo sapiens, UniProt Q13188); conditions: 2 µM protein, 10 µM inhibitor, average of 3 experiments, each in duplicate
T12 construct: for 8, we also made a longer version containing one or more additional domains; His-tag; made in house; host or cells: Escherichia coli
T12 sequence (Q13188 1-491): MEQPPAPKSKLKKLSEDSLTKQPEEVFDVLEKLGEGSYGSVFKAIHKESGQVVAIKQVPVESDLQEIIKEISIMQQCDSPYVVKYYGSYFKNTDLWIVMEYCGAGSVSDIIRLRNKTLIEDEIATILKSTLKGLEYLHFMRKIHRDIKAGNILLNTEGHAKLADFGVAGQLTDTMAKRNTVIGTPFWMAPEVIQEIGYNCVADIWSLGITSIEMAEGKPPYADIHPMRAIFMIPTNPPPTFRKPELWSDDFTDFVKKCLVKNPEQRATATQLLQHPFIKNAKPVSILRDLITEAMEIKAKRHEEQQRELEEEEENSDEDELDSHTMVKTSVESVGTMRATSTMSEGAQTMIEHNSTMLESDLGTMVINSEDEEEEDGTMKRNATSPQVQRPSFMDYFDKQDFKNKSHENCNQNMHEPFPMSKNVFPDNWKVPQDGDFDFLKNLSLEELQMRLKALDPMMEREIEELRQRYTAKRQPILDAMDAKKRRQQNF

STK3 Catalytic Domain = molecular target: T13, STK3 Catalytic Domain (Homo sapiens, UniProt Q13188); conditions: 2 µM protein, 10 µM inhibitor, average of 3 experiments, each in duplicate
T13 construct: For all of them, we expressed and purified the catalytic domain separately; His-tag; made in house; host or cells: Escherichia coli
T13 sequence (Q13188 27-278 limits assumed): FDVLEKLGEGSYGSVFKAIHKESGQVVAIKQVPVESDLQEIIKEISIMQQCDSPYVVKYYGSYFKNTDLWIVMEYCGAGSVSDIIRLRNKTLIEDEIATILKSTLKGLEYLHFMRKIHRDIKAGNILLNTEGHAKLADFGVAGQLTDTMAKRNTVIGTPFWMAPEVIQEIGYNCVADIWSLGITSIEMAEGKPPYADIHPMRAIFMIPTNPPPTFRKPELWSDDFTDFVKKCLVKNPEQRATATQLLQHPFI

SRC Catalytic Domain = SRC Catalytic Domain (Homo sapiens, UniProt P12931); parameters: For all of them, we expressed and purified the catalytic domain separately; His-tag; made in house; host or cells: Escherichia coli; conditions: 2 µM protein, 10 µM inhibitor, average of 3 experiments, each in duplicate
Sequence of SRC Catalytic Domain (P12931 270-523 limits assumed): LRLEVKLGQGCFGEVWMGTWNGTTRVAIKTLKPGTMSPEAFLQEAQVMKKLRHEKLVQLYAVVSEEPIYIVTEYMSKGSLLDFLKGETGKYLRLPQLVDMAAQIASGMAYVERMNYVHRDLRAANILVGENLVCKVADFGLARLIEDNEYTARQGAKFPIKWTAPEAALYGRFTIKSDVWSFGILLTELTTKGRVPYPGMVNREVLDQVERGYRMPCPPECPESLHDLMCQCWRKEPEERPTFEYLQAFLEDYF

T8 sequence (P07332 561-822 limits assumed): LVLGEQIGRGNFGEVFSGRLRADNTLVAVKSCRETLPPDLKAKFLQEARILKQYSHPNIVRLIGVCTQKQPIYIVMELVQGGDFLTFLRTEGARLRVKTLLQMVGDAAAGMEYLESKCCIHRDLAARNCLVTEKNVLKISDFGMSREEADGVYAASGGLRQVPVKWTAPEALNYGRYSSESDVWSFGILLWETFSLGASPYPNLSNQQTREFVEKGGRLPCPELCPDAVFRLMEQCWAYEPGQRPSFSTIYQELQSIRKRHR
T7 sequence (P07332 448-822 limits assumed): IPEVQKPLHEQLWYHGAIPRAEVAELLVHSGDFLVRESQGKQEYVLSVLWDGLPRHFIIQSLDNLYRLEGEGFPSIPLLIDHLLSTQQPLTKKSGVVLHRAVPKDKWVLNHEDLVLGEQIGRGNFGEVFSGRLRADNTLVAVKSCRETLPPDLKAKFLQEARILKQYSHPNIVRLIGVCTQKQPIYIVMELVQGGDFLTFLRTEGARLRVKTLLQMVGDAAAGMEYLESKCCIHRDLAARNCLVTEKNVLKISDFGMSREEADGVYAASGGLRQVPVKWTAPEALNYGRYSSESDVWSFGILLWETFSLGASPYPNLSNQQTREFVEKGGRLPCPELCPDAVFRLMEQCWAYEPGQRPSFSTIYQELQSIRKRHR
T1 sequence (Q9Y243 122-479): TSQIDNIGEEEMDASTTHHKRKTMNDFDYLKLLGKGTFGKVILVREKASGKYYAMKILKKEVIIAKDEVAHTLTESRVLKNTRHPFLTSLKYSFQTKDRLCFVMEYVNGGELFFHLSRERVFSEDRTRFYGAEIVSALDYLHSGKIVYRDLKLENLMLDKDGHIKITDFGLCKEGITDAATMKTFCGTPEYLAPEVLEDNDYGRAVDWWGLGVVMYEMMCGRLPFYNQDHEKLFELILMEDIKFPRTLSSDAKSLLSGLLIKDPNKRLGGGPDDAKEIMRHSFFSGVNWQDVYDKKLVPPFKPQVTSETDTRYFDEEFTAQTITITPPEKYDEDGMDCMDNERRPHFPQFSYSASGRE
T10 sequence (O96013 321-572 limits assumed): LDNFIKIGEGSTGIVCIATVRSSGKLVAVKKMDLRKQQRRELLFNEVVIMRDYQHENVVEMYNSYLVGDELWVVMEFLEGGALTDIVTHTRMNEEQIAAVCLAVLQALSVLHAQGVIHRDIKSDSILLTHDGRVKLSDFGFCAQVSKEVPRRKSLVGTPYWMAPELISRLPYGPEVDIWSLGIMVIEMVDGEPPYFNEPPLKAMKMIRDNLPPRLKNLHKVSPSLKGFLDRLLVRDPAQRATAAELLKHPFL
T4 sequence (O96017 220-486 limits assumed): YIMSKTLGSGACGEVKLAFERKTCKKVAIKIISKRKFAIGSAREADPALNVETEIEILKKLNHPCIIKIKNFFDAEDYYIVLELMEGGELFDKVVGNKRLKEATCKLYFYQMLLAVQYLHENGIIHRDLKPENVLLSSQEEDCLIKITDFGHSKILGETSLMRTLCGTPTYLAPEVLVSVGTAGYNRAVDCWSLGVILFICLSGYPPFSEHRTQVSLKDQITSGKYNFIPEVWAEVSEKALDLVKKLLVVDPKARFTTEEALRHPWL
Sequence of SRC Catalytic Domain+SH2+SH3 (P12931 84-523 limits assumed): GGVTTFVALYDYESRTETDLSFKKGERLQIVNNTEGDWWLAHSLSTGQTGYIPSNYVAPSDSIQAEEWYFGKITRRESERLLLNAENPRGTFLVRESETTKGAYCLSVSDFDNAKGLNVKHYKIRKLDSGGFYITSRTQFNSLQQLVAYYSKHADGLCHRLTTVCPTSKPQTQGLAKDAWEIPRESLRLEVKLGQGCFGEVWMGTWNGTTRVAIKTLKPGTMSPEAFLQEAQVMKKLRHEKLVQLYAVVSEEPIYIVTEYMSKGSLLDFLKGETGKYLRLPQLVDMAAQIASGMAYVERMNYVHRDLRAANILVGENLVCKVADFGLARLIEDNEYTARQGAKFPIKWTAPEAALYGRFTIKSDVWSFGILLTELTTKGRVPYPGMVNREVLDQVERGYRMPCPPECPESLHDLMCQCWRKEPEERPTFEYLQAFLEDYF
T6 sequence (Q14289 425-683 limits assumed): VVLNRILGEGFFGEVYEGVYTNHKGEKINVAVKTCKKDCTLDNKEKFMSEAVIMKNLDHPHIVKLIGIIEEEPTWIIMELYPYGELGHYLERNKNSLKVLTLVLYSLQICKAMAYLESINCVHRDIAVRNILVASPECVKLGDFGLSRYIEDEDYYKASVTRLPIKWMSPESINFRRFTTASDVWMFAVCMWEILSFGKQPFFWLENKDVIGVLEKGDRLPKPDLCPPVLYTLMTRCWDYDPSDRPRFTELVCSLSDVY
T9 sequence (O96013 whole entry, the tested form may be a part): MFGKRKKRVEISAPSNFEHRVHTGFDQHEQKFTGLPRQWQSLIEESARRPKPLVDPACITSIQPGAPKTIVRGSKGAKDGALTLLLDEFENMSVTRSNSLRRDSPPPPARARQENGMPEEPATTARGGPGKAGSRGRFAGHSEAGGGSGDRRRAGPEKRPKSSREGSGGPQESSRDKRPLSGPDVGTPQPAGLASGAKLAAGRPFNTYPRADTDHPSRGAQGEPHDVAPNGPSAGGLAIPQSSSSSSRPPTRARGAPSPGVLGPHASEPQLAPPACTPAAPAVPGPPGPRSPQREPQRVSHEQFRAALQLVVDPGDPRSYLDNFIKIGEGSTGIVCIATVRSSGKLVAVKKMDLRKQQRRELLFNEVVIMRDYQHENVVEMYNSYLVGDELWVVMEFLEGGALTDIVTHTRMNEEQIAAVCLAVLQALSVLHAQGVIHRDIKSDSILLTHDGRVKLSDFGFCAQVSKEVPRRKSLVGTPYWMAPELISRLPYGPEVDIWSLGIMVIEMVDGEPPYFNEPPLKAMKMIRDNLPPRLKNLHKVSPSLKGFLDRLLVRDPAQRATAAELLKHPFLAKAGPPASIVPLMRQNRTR
T11 sequence (Q9P286 449-700 limits assumed): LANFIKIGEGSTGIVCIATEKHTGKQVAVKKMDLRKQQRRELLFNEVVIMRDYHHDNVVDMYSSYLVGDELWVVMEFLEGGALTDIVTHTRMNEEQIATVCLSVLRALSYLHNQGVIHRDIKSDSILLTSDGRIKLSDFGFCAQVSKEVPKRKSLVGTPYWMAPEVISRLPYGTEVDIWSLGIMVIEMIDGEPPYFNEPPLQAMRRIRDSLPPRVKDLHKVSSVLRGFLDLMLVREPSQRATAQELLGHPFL

| Structure (SMILES) | Melting temperature (Tm) shift (AKT3 Catalytic Domain) [degrees Celcius] | Melting temperature (Tm) shift (CDK2 + Cyclin A) [degrees Celcius] | Melting temperature (Tm) shift (CDK2 + Cyclin E) [degrees Celcius] | Melting temperature (Tm) shift (CHK2 Catalytic Domain) [degrees Celcius] | Melting temperature (Tm) shift (DMPK Catalytic Domain) [degrees Celcius] | Melting temperature (Tm) shift (FAK2 Catalytic Domain) [degrees Celcius] | Melting temperature (Tm) shift (FES Catalytic Domain+SH2) [degrees Celcius] | Melting temperature (Tm) shift (FES Catalytic Domain) [degrees Celcius] | Melting temperature (Tm) shift [1] [degrees Celcius] | Melting temperature (Tm) shift (PAK4 Catalytic Domain) [degrees Celcius] | Melting temperature (Tm) shift (PAK7 Catalytic Domain) [degrees Celcius] | Melting temperature (Tm) shift [2] [degrees Celcius] | Melting temperature (Tm) shift [3] [degrees Celcius] | Melting temperature (Tm) shift (STK3 Catalytic Domain) [degrees Celcius] | Melting temperature (Tm) shift (SRC Catalytic Domain) [degrees Celcius] |
| --- | --- | --- | --- | --- | --- | --- | --- | --- | --- | --- | --- | --- | --- | --- | --- |
| CN(C)CCCn1cc(C2=C(c3c[nH]c4ccccc34)C(=O)NC2=O)c2ccccc21 [Bisindolylmaleimide I] | 0.4 | 1.8 | 0.9 | 4.6 | 3.9 | 0.5 | 0.6 | 0.6 | 0.6 | 1.0 | 0.6 | 0.0 | 2.9 | 1.0 | 0.4 |
| CCn1cnc2c(Nc3cccc(Cl)c3)nc(N[C@H]3CCCC[C@H]3N)nc21 [Cdk1 Inhibitor, CGP74514A] | 0.0 | 4.4 | 3.7 | 1.8 | 1.4 | 1.9 | 0.7 | 1.6 | 8.1 | 5.6 | 5.4 | 1.3 | 1.2 | 1.3 | 1.2 |
| CC(C)n1cnc2c(Nc3cccc(Cl)c3)nc(NCCO)nc21 [Compound 52] | 0.0 | 2.3 | 1.7 | 1.1 | 0.0 | 0.9 | 0.6 | 2.3 | 5.0 | 2.0 | 1.8 | 0.8 | 0.7 | 1.2 | 0.9 |
| Nc1cccc(-c2cc3c(Oc4cccc(O)c4)ncnc3[nH]2)c1 [GSK3b Inhibitor XII, TWS119] | 0.1 | 0.7 | 0.2 | 2.1 | 1.2 | 1.5 | 2.0 | 4.1 | 1.5 | 1.3 | 1.1 | 3.1 | 0.5 | 0.3 | 2.6 |
| O=C(c1ccc(Nc2nccc(-c3cc4ccccc4s3)n2)cc1)N1CCC(N2CCCC2)CC1 [IKK Inhibitor VII] | 0.2 | 0.7 | 0.5 | 1.9 | 1.2 | 1.8 | 1.4 | 3.3 | 0.5 | 1.7 | 1.8 | 0.5 | 1.2 | 0.7 | 0.6 |
| NC(=O)Nc1sc(-c2ccc(F)cc2)cc1C(N)=O [IKK-2 Inhibitor IV] | 0.1 | 0.7 | 0.4 | 3.6 | 1.8 | 1.2 | 0.5 | 1.5 | 2.4 | 1.5 | 1.3 | 1.0 | 1.6 | 2.8 | 1.2 |
